Like-named read-outs stand apart in the source and are kept apart here.

For test [1], the system named is tubulin. Kind of test: Fluorescence-based tubulin polymerization assay. It counts as biochemical. The settings on record: purified tubulin, fluorescent reporter, vs DMSO control. The procedure:
Tubulin polymerization in vitro was analyzed using the fluorescence-based tubulin polymerization assay (Cytoskeleton, Inc.), according to the manufacturer’s guidelines. Fluorescence was read on a SaFire II microplate reader (Tecan).

The test system of test [2] is primary cortical neurons. Description: Neurite outgrowth assay. It counts as cell-based, Sprague-Dawley rat. The settings on record: Primary cortical neuron, rat primary cortical neurons, 72 hours. The procedure:
Neurite outgrowth assay was performed by Fluofarma (Pessac, France). Primary cortical neurons were harvested from E19 Sprague-Dawley (Janvier Labs) rat embryos, dissociated and plated at 10,000 per well in a tissue-culture treated 96 well plate, in neuronal medium (SM2 matrix independent growth medium, Stem Cell Technologies). Neurons were followed by phase contrast imaging with 1 image acquired every 4 hours, using an Incucyte Zoom (Essen BioScience) with a 20x objective. Four fields per well were acquired. After 24 hours, cells were treated with test compounds and neurite outgrowth was followed for 72 hours post-treatment. All measures were performed in triplicate in one experiment.
Neurite outgrowth kinetics were analyzed from each phase contrast image using the Neurotrack module of the Incucyte Zoom platform. Neurite length and branch points were obtained for each time point. The area under the curve (AUC) was calculated in each experimental condition (GraphPad Prism 6, GraphPad Software).

Where [3] appears, read: read-out: IC50 for branch point formation.
The mark [4] stands for this setting: read-out: IC50 for neurite length.

The term IC50 denotes the concentration that inhibits the measured activity by half. In the case of `CC[C@]1(O)C[C@@H]2CN(CCc3c([nH]c4ccccc34)[C@@](C(=O)OC)(c3cc4c(cc3OC)N(C)[C@H]3[C@@](O)(C(=O)OC)[C@H](OC(C)=O)[C@]5(CC)C=CCN6CC[C@]43[C@@H]65)C2)C1` [vinblastine, reference compound], in test [1], the “effect on tubulin polymerization in vitro” value was “marked decrease in final polymer formation”. Moreover, the concentration for half-maximal inhibition (IC50) stood at 0.7 nM in test [2] (setting [3]) and 0.9 nM in test [2] (setting [4]).

Regarding `CC[C@]1(O)C[C@H]2CN(CCc3c([nH]c4ccccc34)[C@@](C(=O)OC)(c3cc4c(cc3OC)N(C=O)[C@H]3[C@@](O)(C(=O)OC)[C@H](OC(C)=O)[C@]5(CC)C=CCN6CC[C@]43[C@@H]65)C2)C1` [vincristine, reference compound], the IC50 in test [2] (setting [3]) and in test [2] (setting [4]) was 0.2 nM each time.

Values taken from article PMC11542830, “3-nitropyridine analogues as novel microtubule-targeting agents” (PLOS ONE, 2024).
